Experimental data as given in patent publication US20190184069A1, “ANTIMICROBIAL COMPOSITIONS COMPRISING MINOCYCLINE AND DEGRADATION PRODUCTS OF OXIDIZED CELLULOSE” (Omrix Biopharmaceuticals Ltd., priority 2017, published 2019).
Values joined by “and” are separate entries in the source; they are usually repeats but may differ in a detail not shown here. Identical values can stand only once. “Also recorded” adds a separate entry of the source.

Legend:
[1] = tested on: S. aureus; experiment: Tertiary stage: antimicrobial activity (ET50/MIC) of extract of degradation products of antibiotic-impregnated ORC pads, single or combination; format: cell-based, Staphylococcus aureus; conditions: for Fold reduction in MIC concentration: primary MIC (antibiotic alone) versus antibiotic-impregnated ORC (tertiary) MIC; for MIC times higher than that of the primary stage MIC: antibiotic impregnated onto ORC pad
Procedure: Solutions comprising different concentrations of antibiotics to be tested were prepared in methanol.
Blank ORC pads of dimensions 1×1.5 inch, weighing between 65-75 mg (70 mg on average), in duplicate, were immersed in the antibiotic solutions and then dried using a rotary evaporator to provide extract of degradation products of antibiotic-impregnated ORC pads.
15 ml test tubes containing 3 ml of sterile PBS were prepared, and the antibiotic-impregnated ORC pads were immersed in the tubes and incubated for 3-5 hours at ambient temperature on a roller mixer (Stuart, Cat#SRT9D).
Each of the above extracts was filtered out using a sterile 0.8/0.2 μm syringe filter into a clean 15 ml tube. These extraction fluids are referred to herein as “extract of degradation products of antibiotic-impregnated ORC”.
Briefly, ORC pads weighing on average 70 mg each were impregnated with the selected antibiotic. Extracts of degradation products of antibiotic-impregnated ORC were prepared by immersion and incubation in 3 ml of sterile PBS for 3 hours at ambient temperature. The ORC degeneration products were then removed, and any remaining ORC particles were filtered out using a […] syringe filter. This extraction fluid was then diluted 10-fold into Muller Hinton growth medium containing bacteria. Bacterial growth was monitored every 20 min for a total of 18 hours according to optical density (OD) at 600 nm, using an ELISA reader.
Since the study included many possible combinations of two antibiotics, each with their own different concentration range, a matrix of possible antibiotic concentrations was designed, and degradation products of ORC were prepared accordingly (see Table 10). Since all the possible combinations could not be fitted into one 96 well plate, a series of MIC experiments were carried out.

[2] = tested on: S. aureus; experiment: Secondary stage: bacterial growth (ET50/MIC) of antibiotics with or without extract of degradation products of ORC; format: cell-based, Staphylococcus aureus
Text: ORC pads which had not been impregnated with antibiotic (referred to herein as “blank ORC pads”), were subjected to extraction and degradation in PBS for three hours at ambient temperature. Extract obtained from these blank ORC pads is referred to herein as “blank extract of degradation products of ORC”.
Blank ORC pads were subjected to extraction and degradation in a solution of antibiotic in PBS. Extracts of degradation products obtained from blank ORC pads in a solution of antibiotic in PBS is referred to herein as “extracts of degradation products of blank ORC in antibiotic”.
Due to the acidity of ORC, which provides some antibiotic effect, the size of the pad used was small i.e. approximately 1×1.5 inch, weighing between 65-75 mg (70 mg on average) in order to prevent the ORC from affecting the final pH of the assay and therefore the growth of the bacteria.
15 ml tubes, each containing 3 ml of an antibiotic solution at a known concentration in sterile PBS, were prepared in duplicate.
Blank ORC pads were subjected to extraction and degradation in the antibiotic solution by immersing the ORC pads in the antibiotic solution for 3-5 hours at ambient temperature on a roller mixer (Stuart, Cat#SRT9D).
Blank extract of degradation products of ORC and extract in antibiotic of degradation products of ORC, prepared as described above, were diluted 10 folds in MHBII in sterile 15 ml capped tubes.
The 5×10^6 CFU/ml stock suspension which had been prepared in advance was transferred into a reservoir and 10 μl of the stock suspension were added into each well of columns 2-11 using a multichannel pipette to obtain a final 5×10^5 CFU/ml suspension.
Columns 3 to 6, rows B to F, were filled with the Blank ORC extracted in antibiotic at decreasing concentrations 1 to 5, diluted 10 folds in MHBII. Each sample tested was placed in 4 well repeats for statistical results.
Columns 7 to 10, rows B to F, were filled with the antibiotic solution (AB) at decreasing concentrations 1 to 5, diluted 10 folds in MHBII. Each sample tested was placed in 4 well repeats for statistical results.
Columns 3 to 6, row G, were filled with the blank extract of degradation products of ORC (PBS-ORC) diluted 10 folds in MHBII.
The plate was incubated at 37° C. with shaking in the ELISA reader and the optical density at 600 nm was read every 20 minutes for a total of 18 hours.
The average and standard deviation for OD readings was calculated for each time point of the wells using Excel. The average values were plotted against time to obtain a graph of the bacterial growth curves in the presence of each of the antibiotics tested.
In some cases, the average OD was plotted for a single endpoint of 800 minutes for the various antibiotic treatments and controls.
The average values were also entered into the GraphPad Prism program (GraphPad Software Inc., CA, USA) in order to calculate the Effective Time 50 (ET50) i.e. the time, in minutes, required for the antibiotic to induce a response halfway between the baseline and maximum, where the maximum is the bacterial growth in MHBII with PBS. This provides a quantifiable measure of the efficacy of the antibiotics tested and enables comparison of the various samples tested.

For `CN(C)c1ccc(O)c2c1C[C@H]1C[C@H]3[C@H](N(C)C)C(O)=C(C(N)=O)C(=O)[C@@]3(O)C(O)=C1C2=O` [Minocycline, minocycline], the “MIC fold lower in the presence of degradation products of ORC than in their absence” value [1] was “at least 5.8 fold”, the “Fold reduction of the MIC for minocycline with at least one more antibiotic impregnated on ORC, versus minocycline alone” value ([1]; combination with rifampin or clindamycin, with ORC degradation products) was 200 fold and the ET50 ([1]; impregnated ORC extract, minocycline 1.26 ng/ml, clindamycin 0.00 ng/ml) was 637.6 min. It also gave an ET50 ([1]; impregnated ORC extract, minocycline 1.26 ng/ml, rifampin 0.00 ng/ml) of 585.4 min, an ET50 ([1]; impregnated ORC extract, minocycline 2.52 ng/ml, clindamycin 0.00 ng/ml) of 1072 min and an ET50 ([1]; impregnated ORC extract, minocycline 2.52 ng/ml, rifampin 0.00 ng/ml) of 799.9 min. The ET50 ([1]; impregnated ORC extract, minocycline 5.04 ng/ml, clindamycin 0.00 ng/ml) was >2000 min, the ET50 ([1]; impregnated ORC extract, minocycline 5.04 ng/ml, rifampin 0.00 ng/ml) was >2000 min and the ET50 ([1]; impregnated ORC extract, minocycline 6.30 ng/ml, clindamycin 0.00 ng/ml) was >2000 min. For the same molecule, the ET50 ([1]; impregnated ORC extract, minocycline 6.30 ng/ml, rifampin 0.00 ng/ml) was >2000 min, the ET50 ([1]; minocycline-impregnated ORC extract, impregnation fluid 5 μg/ml, 0.00027 % on ORC, 6.30 ng/ml in MIC) was 1145 min and the ET50 ([1]; minocycline-impregnated ORC extract, impregnation fluid 10 μg/ml, 0.00054 % on ORC, 12.60 ng/ml in MIC) was 2000 min. For the same molecule, the ET50 ([1]; minocycline-impregnated ORC extract, impregnation fluid 20 μg/ml, 0.00108 % on ORC, 25.20 ng/ml in MIC) was >2000 min, the ET50 ([1]; minocycline-impregnated ORC extract, impregnation fluid 40 μg/ml, 0.00216 % on ORC, 50.40 ng/ml in MIC) was >2000 min and the “Fold reduction in MIC concentration” value [1] was 20 and 19.85. It also gave an ET50 ([2]; minocycline 0.05 μg/ml, +ORC degradation products) of 901.1 min, an ET50 ([2]; minocycline 0.05 μg/ml, +ORC degradation products, listed as minocycline) of 901 min and an ET50 ([2]; minocycline 0.05 μg/ml, −ORC) of 428.1 min. The ET50 ([2]; minocycline 0.1 μg/ml, +ORC degradation products) was >2000 min, the ET50 ([2]; minocycline 0.1 μg/ml, +ORC degradation products, listed as minocycline) was “over 2000 minutes” and the ET50 ([2]; minocycline 0.1 μg/ml, −ORC) was 555.1 min. The ET50 ([2]; minocycline 0.1 μg/ml, −ORC, listed as minocycline) was 555 min, the ET50 ([2]; minocycline 0.2 μg/ml, +ORC degradation products) was >2000 min and the ET50 ([2]; minocycline 0.2 μg/ml, +ORC degradation products, listed as minocycline) was “over 2000 minutes”. For the same molecule, the ET50 ([2]; minocycline 0.2 μg/ml, −ORC) was 1771 min, the ET50 ([2]; minocycline 0.4 μg/ml, +ORC degradation products) was >2000 min and the ET50 ([2]; minocycline 0.4 μg/ml, −ORC) was >2000 min. For the same molecule, the ET50 ([2]; minocycline 0.4 μg/ml, −ORC, listed as minocycline) was “above 2000 minutes”, the ET50 ([2]; minocycline 0.5 μg/ml, +ORC degradation products) was >2000 min and the ET50 ([2]; minocycline 0.5 μg/ml, −ORC) was >2000 min.
`CO[C@H]1/C=C/O[C@@]2(C)Oc3c(C)c(O)c4c(O)c(c(/C=N/N5CCN(C)CC5)c(O)c4c3C2=O)NC(=O)/C(C)=C\C=C\[C@H](C)[C@H](O)[C@@H](C)[C@@H](O)[C@@H](C)[C@H](OC(C)=O)[C@@H]1C` [Rifampin, rifampin] was tested, and the “Change of antimicrobial activity when impregnated onto the ORC pad versus first stage MIC” value [1] was “impaired”, the “MIC times higher than that of the primary stage MIC” value [1] was 50 times and the “MIC times higher than that of the primary stage MIC” value ([1]; listed as rifampin) was “about 50 times”. For the same molecule, the ET50 ([1]; impregnated ORC extract, minocycline 0.00 ng/ml, rifampin 73.29 ng/ml) was 406.8 min, the ET50 ([1]; impregnated ORC extract, minocycline 0.00 ng/ml, rifampin 146.58 ng/ml) was 442.3 min and the ET50 ([1]; impregnated ORC extract, minocycline 0.00 ng/ml, rifampin 293.16 ng/ml) was 450.4 min. The ET50 ([1]; impregnated ORC extract, minocycline 0.00 ng/ml, rifampin 366.45 ng/ml) was 418.1 min, the “Fold reduction in MIC concentration” value [1] was 0.019 and the ET50 ([1]; rifampin-impregnated ORC extract, impregnation fluid 50 μg/ml, 0.015705 % on ORC, 366.45 ng/ml in MIC) was 643 min. The ET50 ([1]; rifampin-impregnated ORC extract, impregnation fluid 100 μg/ml, 0.03141 % on ORC, 732.9 ng/ml in MIC) was 1396 min, the ET50 ([1]; rifampin-impregnated ORC extract, impregnation fluid 150 μg/ml, 0.047115 % on ORC, 1099.35 ng/ml in MIC) was >2000 min and the ET50 ([1]; rifampin-impregnated ORC extract, impregnation fluid 200 μg/ml, 0.06282 % on ORC, 1465.8 ng/ml in MIC) was >2000 min. The “Effect of addition of degradation products of ORC on the antibiotic activity” value ([2]; antibiotic with versus without ORC degradation products) was “reduction in the antibiotic activity; also recorded: interfere with the antibiotic activity; also recorded: lowering of the antibiotic activity; also recorded: impaired”, the ET50 ([2]; rifampin 0.015 μg/ml, +ORC degradation products) was 440.5 min and the ET50 ([2]; rifampin 0.015 μg/ml, −ORC) was 470.7 min. It also gave an ET50 ([2]; rifampin 0.031 μg/ml, +ORC degradation products) of 436.3 min, an ET50 ([2]; rifampin 0.031 μg/ml, −ORC) of 448.4 min and an ET50 ([2]; rifampin 0.062 μg/ml, +ORC degradation products) of 432.8 min. The ET50 ([2]; rifampin 0.062 μg/ml, +ORC degradation products, listed as rifampin) was 430 min, the ET50 ([2]; rifampin 0.062 μg/ml, −ORC) was 669.1 min and the ET50 ([2]; rifampin 0.125 μg/ml, +ORC degradation products) was 432.3 min. The ET50 ([2]; rifampin 0.125 μg/ml, +ORC degradation products, listed as rifampin) was “around 430 minutes”, the ET50 ([2]; rifampin 0.125 μg/ml, −ORC) was “no growth at all” and the ET50 ([2]; rifampin 0.25 μg/ml, +ORC degradation products) was 430.8 min. For the same molecule, the ET50 ([2]; rifampin 0.25 μg/ml, +ORC degradation products, listed as rifampin) was “around 430 minutes” and the ET50 ([2]; rifampin 0.25 μg/ml, −ORC) was “no growth at all”.
